pEC50: −log10 of the molar value. Where two headings read alike, the source gives them in different places.
Assays:
Type in all cases: cell-based
HIV-1 NL4.3 or IIIB = test: Inhibition of HIV-1 (NL4.3 or IIIB) replication in MT-4 cells (MTT); settings: Human immunodeficiency virus 1, IIIB; for EC50: MT4, read-out: EC50, inhibition of HIV-1 NL4.3 or IIIB replication
Description: Compounds were tested for their ability to inhibit HIV-1 replication in MT-4 cells or PBMC's (peripheral blood mononucleocytes) using published procedures (for example, see: Labrosse et al. J. Virol. 1998, 6381-6388; Simmons et al. J. Virol. 1998, 8453-8457; Donzella et al. Nature Medicine 1998, 72-77; Schols et al. J. Exp. Med. 1997, 1383-1388; De Clercq et al. Antiviral Res. 1997, 147-156; and Bridger et al. U.S. patent application Ser. No. 09/111,895). In addition to the above references, experimental methods for performing anti-viral assays can also be found in: Bridger et al. J. Med. Chem. 1995, 38, 366-378; Bridger et al. J. Med. Chem. 1996, 39, 109-119; Bridger et al. U.S. Pat. No. 5,698,546; Bridger et al. U.S. Pat. No. 5,583,131; Bridger et al. U.S. Pat. No. 5,817,807; De Clercq et al. Antimicrob. Agents and Chemother. 1994, 38, 668-674.
1. The HIV-1 strains NL4.3 and IIIB are T-tropic strains that exclusively use CXCR4 as the co-receptor for entry into cells. MT-4 Cells express CXCR4 but not CCR5.
Inhibition of HIV-1 NL4.3 (or IIIB) replication assays were performed as previously described (Bridger et al. J. Med. Chem. 1999, 42, 3971-3981; De Clercq et al. Proc. Natl. Acad. Sci, 1992, 89, 5286-5290; De Clercq et al. Antimicrob. Agents Chemother. 1994, 38, 668-674; Bridger et al. J. Med. Chem. 1995, 38, 366-378). Anti-HIV activity and cytotoxicity measurements were carried out in parallel. They were based on the viability of MT-4 cells that had been infected with HIV in the presence of various concentrations of the test compounds. After the MT-4 cells were allowed to proliferate for 5 days, the number of viable cells was quantified by a tetrazolium-based calorimetric 3-(4,5-dimethylthiazol-2-yl)-2,5-diphenyltetrazolium bromide (MTT) procedure in 96-well microtrays. In all of these assays, viral input (viral multiplicity of infection, MOI) was 0.01, or 100 times the 50% cell culture infective dose (CCID50). The EC50 was defined as the concentration required to protect 50% of the virus-infected cells against viral cytopathicity.

[1] = tested on: RANTES induced Ca flux in U87.CCR5 cells; test: Inhibition of RANTES induced Ca flux in U87.CCR5 cells (FLIPR); settings: read-out: inhibited RANTES induced Ca flux; for inhibition at 20 µg/mL: U-87-CCR5, at 20 μg/mL; for inhibition at 20 µM: U-87-CCR5, at 20 μM
Description: (§1) Loading dye: Fluo-3, AM (Molecular Probes F-1241) is dissolved in anhydrous DMSO and stored frozen in aliquots. To increase the solubility of the dye in the loading medium, 10% (w/v) pluronic acid (Molecular Probes F-127) is added to the Fluo-3 stock solution immediately before use.
(§2) HBSS+20 mM Hepes buffer+0.2% BSA, pH 7.4. HBSS 10× [(w/o phenol red and sodium bicarbonate (Gibco 14 065-049)]; Hepes buffer 1M (Gibco 15 630-056), BSA (Sigma A3675). The flux buffer is vacuum-filtered and stored refrigerated for a maximum of 5 days. Before use in the experiment, the buffer is warmed at 37° C. in a waterbath.
(§3) The test compounds were diluted in flux buffer and added to 4 wells of a black microplate (4 parallel measurements per compound).
(§4) The chemokines are diluted in flux buffer to concentrations that are 4-fold higher than the desired concentrations required for stimulation of the cells (i.e. 2.5 nM for SDF-1α and 0.6 nM for RANTES). The chemokines were added to untreated 96-well Sero well compound plates (International Medical, Sterilin code 611F96). In the negative control well's (baseline monitoring), flux buffer is added instead of chemokine. As a positive control to check for dye loading efficiency, 20 μM digitonin (final concentration) was also included. The agonist plate was incubated in the FLIPR (37° C.) for 15-30 min.
(§5) The FLIPR settings (camera exposure time and laser power) are adjusted to obtain initial fluorescence values between 8,000 and 10,000 units. After monitoring a 20 second-baseline, the agonist (chemokine) (50 μL) is added by automatic pipettor with black pipette tips. Fluorescence is measured simultaneously in all wells of the microplate every 2 seconds (first 2 min) and thereafter every 6 seconds (additional 2 min). The average ca-flux measured in each set of 4 identical wells (one test compound) was calculated by the FLIPR software.
U87.CCR5 cells were seeded into the black microplates (Costar 3603) on the day before the experiment. The culture medium was removed from the cells and 100 μL of loading medium (DMEM+10% FBS+4 μM Fluo-3, AM) was added to each well and the plate was incubate at 37° C. for 45 min. The loading medium was then removed an the cells were washed twice with flux buffer using the CELL WASH microplate washer (Labsystems) followed by incubation in flux buffer for 10 min. at room temperature (the washing procedure was repeated twice). Finally, the wash buffer was removed from the microplate wells and 150 μL of the test compound, diluted in flux buffer to the desired concentration. The microplate was then incubated in the FLIPR drawer for 10 min. prior to testing. Measurements were performed as described above.
The compounds of the current invention were tested for inhibition of RANTES induced Ca flux in U87.CCR5 cells.

[2] = tested on: SDF-1α induced Ca flux in SUP-T1 cells; test: Inhibition of SDF-1α induced Ca flux in SUP-T1 cells (FLIPR); settings: Homo sapiens, read-out: inhibited SDF-1α induced Ca flux; for inhibition at 20 µg/mL: at 20 μg/mL
Description: as §1, §2, §3, §4
SUP-T1 cells were centrifuged at room temperature (RT) and re-suspended in loading medium (RPMI-1640 containing 2% FBS and 4 μM Fluo-3, AM). The cells were incubate at room temperature for 45 min. then washed twice in flux buffer then incubated in flux buffer at room temperature for 10 min. The cells were centrifuged and re-suspended in flux buffer at a density of 3×10^6 cells per mL. […] The microplate is then gently centrifuged at room temperature. Homogeneous spreading of the cells on the bottom of the microplate wells was then confirmed with a microscope and the microplate was incubated in the FLIPR (37° C.) for 10 min. prior to testing.
as §5
The compounds of the current invention were tested for inhibition of SDF-1α induced Ca flux in SUP-T1 cells using the method described above.

Row | EC50 (HIV-1 NL4.3 or IIIB) | SMILES | inhibition at 20 µg/mL [2] | other results
1 | < 20 µg/mL | N[C@@H]1CCCC[C@H]1N(Cc1ccc(CNCc2ccccn2)cc1)C1CCCc2cccnc21 (relative stereo) [Example 68, N-(2-pyridinylmethyl)-N′-(trans-2-aminocyclohexyl)-N′-(5,6,7,8-tetrahydro-8-quinolinyl)-1,4-benzenedimethanamine] | – | inhibition at 20 µg/mL [1]: > 20%
2 | < 20 µg/mL | c1ccc(CNCc2ccc(CNc3cccc4cccnc34)cc2)nc1 [Example 6, N-(2-pyridinylmethyl)-N′-(8-quinolinyl)-1,4-benzenedimethanamine] | – | inhibition at 20 µg/mL [1]: > 20%
3 | < 20 µg/mL | c1ccc(CNCc2ccc(CN(Cc3ccc4ccccc4n3)C3CCCc4cccnc43)cc2)nc1 (stereo not shown) [Example 18, N-(2-pyridinylmethyl)-N′-(2-quinolinylmethyl)-N′-(5,6,7,8-tetrahydro-8-quinolinyl)-1,4-benzenedimethanamine] | > 20% | –
4 | – | c1ccc(CNCc2ccc(CN(Cc3cc[nH]n3)C3CCCc4cccnc43)cc2)nc1 (stereo not shown) [Example 25, N-(2-pyridinylmethyl)-N′-[3-pyrazolylmethyl]-N′-(5,6,7,8-tetrahydro-8-quinolinyl)-1,4-benzenedimethanamine] | – | inhibition at 20 µg/mL [1]: > 20%
5 | < 20 µg/mL | c1ccc(CNCc2ccc(CN(Cc3nccs3)C3CCCc4cccnc43)cc2)nc1 (stereo not shown) [Example 28, N-(2-pyridinylmethyl)-N′-[2-thiazolylmethyl]-N′-(5,6,7,8-tetrahydro-8-quinolinyl)-1,4-benzenedimethanamine] | > 20% | –
6 | < 20 µg/mL | COc1ccc2c(c1)CC(NCc1ccc(CNCc3ccccn3)cc1)CC2 (stereo not shown) [Example 35, N-(2-pyridinylmethyl)-N′-(7-methoxy-1,2,3,4-tetrahydro-2-naphthalenyl)-1,4-benzenedimethanamine] | > 20% | –
7 | < 20 µg/mL | Oc1cccc2c1CC(NCc1ccc(CNCc3ccccn3)cc1)CC2 (stereo not shown) [Example 41, N-(2-pyridinylmethyl)-N′-(8-hydroxy-1,2,3,4-tetrahydro-2-naphthalenyl)-1,4-benzenedimethanamine] | > 20% | –
8 | < 20 µg/mL | c1ccc(CNCc2ccc(CNC3CCc4cccnc4C3)cc2)nc1 (stereo not shown) [Example 45, N-(2-pyridinylmethyl)-N′-(5,6,7,8-tetrahydro-7-quinolinyl)-1,4-benzenedimethanamine] | > 20% | –
9 | < 20 µg/mL | CC(C)CNCCN(Cc1ccc(CNCc2ccccn2)cc1)C1CCCc2cccnc21 (stereo not shown) [Example 48, N-(2-pyridinylmethyl)-N′-[2-(isobutylamino)ethyl]-N′-(5,6,7,8-tetrahydro-8-quinolinyl)-1,4-benzenedimethanamine] | > 20% | –
10 | < 20 µg/mL | N=C(N)NCCN(Cc1ccc(CNCc2ccccn2)cc1)C1CCCc2cccnc21 (stereo not shown) [Example 51, N-(2-pyridinylmethyl)-N′-(2-guanidinoethyl)-N′-(5,6,7,8-tetrahydro-8-quinolinyl)-1,4-benzenedimethanamine] | > 20% | –
11 | < 20 µg/mL | O=C(NCCN(Cc1ccc(CNCc2ccccn2)cc1)C1CCCc2cccnc21)Nc1ccccc1 (stereo not shown) [Example 55, N-(2-pyridinylmethyl)-N′-[2-(phenylureido)ethyl]-N′-(5,6,7,8-tetrahydro-8-quinolinyl)-1,4-benzenedimethanamine] | > 20% | –
12 | < 20 µg/mL | c1ccc(CNCc2ccc(CN(Cc3ccccn3)C3CCCc4cccnc43)cc2)nc1 (stereo not shown) [Example 84, N,N′-bis(2-pyridinylmethyl)-N′-(5,6,7,8-tetrahydro-8-quinolinyl)-1,4-benzenedimethanamine] | > 20% | –
13 | < 20 µg/mL | c1ccc(CNCc2ccc(CN(Cc3ccccn3)C3CCCCc4cccnc43)cc2)nc1 (stereo not shown) [Example 85, N,N′-bis(2-pyridinylmethyl)-N′-(6,7,8,9-tetrahydro-5H-cyclohepta[b]pyridin-9-yl)-1,4-benzenedimethanamine] | > 20% | –
14 | < 20 µg/mL | c1ccc(CNCc2ccc(CN(Cc3ccccn3)C3CCc4cccnc43)cc2)nc1 (stereo not shown) [Example 86, N,N′-bis(2-pyridinylmethyl)-N′-(6,7-dihydro-5H-cyclopenta[b]pyridin-7-yl)-1,4-benzenedimethanamine] | > 20% | –
15 | < 20 µg/mL | c1ccc(CNCc2ccc(CN(Cc3ccccn3)CC3CCc4cccnc43)cc2)nc1 (stereo not shown) [Example 89, N,N′-bis(2-pyridinylmethyl)-N′[(6,7-dihydro-5H-cyclopenta[b]pyridin-7-yl)methyl]-1,4-benzenedimethanamine] | > 20% | –
16 | – | c1ccc(CCN(Cc2cccc(CNCc3ccccn3)c2)Cc2ccccn2)cc1 [Example 109, N-[-(phenyl)ethyl]-N,N′-bis(2-pyridinylmethyl)-1,3-benzenedimethanamine] | – | inhibition at 20 µM [1]: > 20%
17 | – | c1ccc(CNCc2cccc(CN(Cc3ccccn3)Cn3ccnc3)c2)nc1 [Example 118, N-[1H-imidazol-1-ylmethyl]-N,N′-bis(2-pyridinylmethyl)-1,3-benzenedimethanamine] | – | inhibition at 20 µM [1]: > 20%
18 | – | Cc1nc[nH]c1CN(Cc1ccc(CNCc2ccccn2)cc1)Cc1ccccn1 [Example 166, N-[(4-methyl)-1H-imidazol-5-ylmethyl]-N,N′-bis(2-pyridinylmethyl)-1,4-benzenedimethanamine] | – | pEC50 (HIV-1 NL4.3 or IIIB; MT4, read-out: EC50, inhibition of HIV-1 NLA.3 or IIIB replication): > 4.70; inhibition at 20 µM ([2]; at 20 μM): > 20%
19 | – | c1ccc(CN2CCC(N(CCc3ccccn3)Cc3cccc(CNCc4ccccn4)c3)C2)cc1 (stereo not shown) [Example 179, N-[1-(benzyl)-3-pyrrolidinyl]-N-[2-(2-pyridinyl)ethyl]-N′-(2-pyridinylmethyl)-1,3-benzenedimethanamine] | – | inhibition at 20 µM [1]: > 20%

Reference: patent publication US6750348B1, “Chemokine receptor binding heterocyclic compounds” (AnorMED, Inc., priority 1999, dated 2004)
